Source: publication PMC10059057, “Antileishmanial and Antiplasmodial Activities of Secondary Metabolites from the Root of Antrocaryon klaineanum Pierre (Anacardiaceae)” (Molecules, 2023)
≈ marks a conversion by molar mass, not a printed value. Like-named read-outs stand apart in the source and are kept apart here.

Legend:
Pf 3D7 = test system: Pf 3D7; design: method as in PMID 34187456; conditions: from Hymenostegia afzelii and Endodesmia calophylloides; read-out: IC50 against Pf 3D7; cited from earlier work
[1] = In vitro cytotoxicity assay (resazurin) on Raw 264.7 macrophage cells; type: cell-based, murine; conditions: mouse
Description: RAW 264.7 cells were obtained from RIKEN BioResource Centre Cell Bank (Tsukuba, Japan) and cultured in Dulbecco’s modified Eagle medium (DMEM) containing 1% penicillin–streptomycin and 10% FBS under 5% CO2 and humidified atmosphere at 37 °C and sub-cultured every 72 h.
(§1) A stock solution was prepared at 100 mg/mL for each extract and fraction and at 50 mg/mL for isolated compound in 100% DMSO (Sigma–Aldrich, Munich, Germany). Master plates were then prepared by mixing 2 μL of each stock solution with 198 μL of fresh incomplete RPMI 1 640 culture medium to yield a concentration of 1 mg/mL for extract and fraction and of 0.5 mg/mL (1% DMSO) followed by a 5-fold serial dilution. Extracts and fractions were tested at concentrations ranging from 0.16 to 100 μg/mL, and isolated compounds at concentrations ranging from 0.08 to 50 μg/mL.
The murine macrophages, Raw 264.7 cells were grown in a T-25 cm^2 flask containing the complete Dulbecco’s modified Eagle’s medium (Sigma–Aldrich, Munich, Germany) supplemented with 10% FBS (Sigma–Aldrich, Munich, Germany), 1% non-essential amino acids, and 1% (v/v) penicillin–streptomycin (Sigma–Aldrich, Munich, Germany) and incubated at 37° in a humidified atmosphere containing 5% CO2. For the experiments, 80–90% confluent cell culture was trypsinized, counted using a Neubauer haemacytometer, and seeded into a 96-well cell culture treated flat-bottomed plate (SARSTEDT, Inc. Newton, NC 28658, USA) at a cell density of 10^4 cells/well. Plates were incubated overnight to allow cell adhesion. Cells were then treated with serially diluted concentrations of crude extract, fractions, and isolated compounds for 48 h. Podophyllotoxin (Sigma–Aldrich, Munich, Germany) was used as positive control with the highest concentration of 10 μM. Afterwards, 10 μL of resazurin solution (0.15 mg/mL prepared in PBS) was added to each well, and the plates were additionally incubated for 4 h. Of important note, resazurin is a nonfluorescent, nontoxic, and cell-permeable blue dye which is used to quantify cell viability following its conversion into the highly fluorescent pink dye resorufin in response to changes in the reducing environment within the cytosol of the cell. The level of fluorescence that positively correlates with cell viability was measured using a Magellan Infinite M200 plate reader (Tecan, Germany) at an excitation wavelength of 530 nm and an emission wavelength of 590 nm. The growth proliferation percentage of cells was calculated with respect to the negative control. The concentration–response curves were plotted using inhibitory percentages versus the logarithm of the drug concentration to determine the concentration of drug that reduces cell viability by 50% (CC50) using GraphPad Prism 8.0 software. Selectivity indices (SI) [SI = CC50/IC50] were determined for each inhibitor based on their antiparasitic activity (IC50) and cell cytotoxicity (CC50 on Raw cells). Samples with SI greater than 10 were classified as poorly toxic toward Raw cells.

[2] = test system: L. donovani promastigotes 1S (MHOM/SD/62/1S); assay: Antileishmanial resazurin fluorimetric assay on promastigotes; type: cell-based, Leishmania donovani; conditions: for IC50: Leishmania donovani
Description: (§2) The cryopreserved chloroquine-sensitive (Pf3D7-(MRA-102)), the multi-resistant (PfDd2) of Plasmodium falciparum, and the promastigote form of Leishmania donovani strains were obtained from BEI Resources (https://www.beiresources.org/ (accessed on 16 February 2019)) and are routinely cultured at the Antimicrobial and Biocontrol Agents Unit, University of Yaoundé I.
Leishmania donovani promastiogtes were cultured in Medium 199 (Sigma, Darmstadt, Germany) supplemented with 10% Heat-Inactivated fetal Bovine Serum (HIFBS) (Sigma, Darmstadt, Germany) and 100 IU/mL penicillin/streptomycin. The culture was maintained in 75 cm^2 cell culture flask at 28 °C and sub-cultured every 72 h.
as §1
The antileishmanial activity of crude extracts, derived fractions, and isolated compounds against cultured L. donovani promastigotes was evaluated using the resazurin fluorimetric assay as described by Siqueira-Neto et al. (2010). Briefly, promastigotes from a logarithmic phase culture (4 × 10^5 cells/mL; 90 μL) were seeded in 96-well microplates and treated with 10 μL of inhibitors at different triplicate concentrations (100 µg/mL–0.16 µg/mL for extract/fractions and 50 µg/mL–0.08 µg/mL for compounds). Plates were incubated for 28 h at 28 °C, followed by the addition of […] resazurin (0.15 mg/mL in DPBS; Sigma, Darmstadt, Germany). The negative and positive controls were, respectively, 0.1% DMSO and amphotericin B (Sigma, Darmstadt, Germany) (10–0.016 μg/mL) treated wells. After an additional incubation for 44 h, plates were then read on a Magelan Infinite M200 fluorescence plate reader (Tecan, Männedorf, Switzerland) at excitation and emission wavelengths of 530 and 590 nm, respectively. For each sample, growth inhibition percentages were calculated with Microsoft Excel Software; then, from the nonlinear regression fit, concentration–response curves were generated to deduce the median inhibitory concentration (IC50) using the GraphPad Prism 8.0 software.

[3] = test system: P. falciparum chloroquine-sensitive (Pf3D7); assay: Antiplasmodial SYBR green I based fluorescence assay, chloroquine-sensitive strain; type: cell-based; conditions: Plasmodium falciparum, read-out: Pf3D7 IC50 ± SD
Source text: as §2
(§3) Plasmodium falciparum strains were maintained in 60 mm sterile petri dishes containing complete RPMI 1640 medium [RPMI 1640 (Sigma Aldrich) supplemented with 0.2% sodium bicarbonate (Sigma Aldrich), 0.5% Albumax II (Gibco), 1% hypoxanthine 100X (Gibco, Billings, MT, USA), 25 mM HEPES, and 0.04% gentamicin (Sigma Aldrich)] with fresh O^+ erythrocytes of healthy human volunteers suspended at 4% haematocrit (v/v) and incubated at 37 °C in a 5% CO2 humidified atmosphere. The medium was replaced daily with fresh complete medium to propagate the culture. Ten percent (10%) Giemsa-stained thin blood smears were examined microscopically under immersion oil to monitor cell-cycle transition and parasitaemia.
as §1
(§4) The use of mixed-stage cultures can enable the test molecules to interact with all the three stages (ring, trophozoite, and schizont) found during a 48-h life cycle of P. falciparum in culture. Moreover, starting the experiment with a synchronized ring stage culture provides the advantage of monitoring the growth inhibitory effect of test samples without a rise-up in parasitemia during the ring–trophozoite–schizont transitions. For this particular reason, parasites were synchronized at the ring stage by serial treatment with 5 % sorbitol for two days prior to each experiment with respect to Lambros and Vanderberg, 1979 [44] protocol.
(§5) Drug sensitivity assay was carried out in 96-well microtitration plates using the SYBR green I based fluorescence assay (Smilkstein et al., 2004). […] The fact that human red blood host cells are anucleate allows the use of SYBR green for the proper monitoring of the growth of the malarial parasite.
(§6) The 96 wells flat-bottom assay plates with sorbitol-synchronized ring stage parasites (haematocrit: 1%, parasitaemia: 2%, 90 μL) were incubated in the presence of 10 µL of pre-diluted extracts, fractions, isolated compounds, and reference drugs [Chloroquine and Artemisinin (Sigma–Aldrich, Munich, Germany)] at different triplicate concentrations (100 µg/mL–0.16 µg/mL for extract/fractions and 50 µg/mL–0.08 µg/mL for compounds). After an incubation period of 72 h at 37 °C, 100 μL of the SYBR Green I solution prepared in a lysis buffer (0.2 µL of 10,000× SYBR Green I per mL of lysis buffer) consisting of Tris (20 mM; pH 7.5), EDTA (5 mM), saponin (0.008%; m/v), and Triton X-100 (0.08%; v/v) was added to each well, mixed twice gently with a multi-channel pipette, and incubated in the dark at 37 °C for 1 h. Fluorescence was measured using the microplate reader Infinite M200 (Tecan) at an excitation and emission wavelength of 485 and 538 nm, respectively. […] The data analysis was performed with GraphPad Prism 8.0 software, fitting by nonlinear regression, and concentration–response curves were generated to determine the median inhibitory concentration (IC50) for each sample.

PfDd2 = test system: PfDd2; design: method as in PMID 34187456; conditions: from Hymenostegia afzelii and Endodesmia calophylloides; read-out: IC50 against PfDd2; cited from earlier work
[4] = test system: P. falciparum chloroquine-resistant (PfDd2); assay: Antiplasmodial SYBR green I based fluorescence assay, chloroquine-resistant strain; type: cell-based; conditions: Plasmodium falciparum, read-out: PfDd2 IC50 ± SD
Source text: as §2, §3, §1, §4, §5, §6
The resistance index (RI) was determined as the ratio of the IC50 of the samples on the multi-resistant strain Dd2 and the IC50 on the chloroquine-sensitive strain 3D7 as reported by Douanla et al..

[5] = test system: Leishmania donovani strain MHOM/IN/1983/AG83; design: method as in PMID 24949478; conditions: scopoletin from leaves of Canarium patentinervium; cited from earlier work
cholinesterase = biological target: cholinesterase; design: method as in PMID 24949478; conditions: cited from earlier work
Leishmania = test system: Leishmania; design: method as in PMID 30663371; conditions: another study; cited from earlier work
Leishmania donovani [6] = test system: Leishmania donovani; design: method as in PMID 24802987, PMID 36399160; conditions: cited from earlier work
Leishmania donovani [7] = test system: Leishmania donovani; design: method as in PMID 24802987, PMID 36399160; conditions: cited from earlier work; remark: listed apart in the source
leishmania promastigotes = test system: leishmania promastigotes; design: method as in PMID 31085212; conditions: β-sitosterol from Ifloga spicata; cited from earlier work
[8] = promastigotes, resazurin assay, read-out: L. donovani Promastigote IC50 ± SD
[9] = chloroquine-sensitive strain 3D7, 72 h
[10] = chloroquine-resistant strain Dd2, 72 h
[11] = Raw 264.7 macrophages, 48 h treatment, resazurin, read-out: Cytotoxicity Raw Cells CC50 ± SD
[12] = read-out: L. donovani Promastigote IC50 ± SD, promastigotes, resazurin assay

Structure (SMILES): COc1c(O)cc2c(=O)oc3c(OC)c(O)cc4c(=O)oc1c2c34 [3,3′-Dimethylellagic acid (4), 3,3′-dimethylellagic acid]
- IC50 (Pf 3D7): 4.27 µM
- CC50 at 48 h [1]: > 500 µg/mL
- IC50 [2, 8]: 8.07 ± 0.9 µg/mL (≈ 24.4 µM)
- IC50 [3, 9]: > 50 µg/mL
- IC50 (PfDd2): 1.36 µM
- IC50 [4, 10]: > 50 µg/mL

Structure (SMILES): C[C@@H]1[C@H](O)[C@@H](C)/C=C/C=C/C=C/C=C/C=C/C=C/C=C/[C@H](O[C@@H]2O[C@H](C)[C@@H](O)[C@H](N)[C@@H]2O)C[C@@H]2O[C@](O)(C[C@@H](O)C[C@@H](O)[C@H](O)CC[C@@H](O)C[C@@H](O)CC(=O)O[C@H]1C)C[C@H](O)[C@H]2C(=O)O [Amphotericin B, amphotericin B, reference compound]
- IC50 [2, 8]: 2.9 ± 0.46 µg/mL (≈ 3.14 µM)

Structure (SMILES): CCCCCCCC=CCCCCCCCCCCCCCC(O)C(O)C(COC1OC(CO)C(O)C(O)C1O)NC(=O)C(O)CCCCCCCCCCCCCC [Antroklaicerebroside (1), (2S,3S,4R,2′R,18E)N-((-3,4-dihydroxy-β-D-gluco-pyranosyl)oxy)hexacos-18-en-2-yl)-2-hydroxyhexadecanamide]
- CC50 at 48 h [1]: > 500 µg/mL
- IC50 [2, 8]: 6.19 ± 0.79 µg/mL (≈ 7.33 µM)
- melting point: 184 to 186 °C
- IC50 [3, 9]: 42.04 ± 0.08 µg/mL
- IC50 [4, 10]: > 50 µg/mL

Structure (SMILES): C[C@@H]1CC[C@H]2[C@@H](C)C(=O)O[C@@H]3O[C@@]4(C)CC[C@@H]1[C@]32OO4 [Artemesin, Artemisinin, reference compound]
- IC50 ([3]; chloroquine-sensitive strain 3D7, 72 h, reference drugs in µM): 0.02 µM
- IC50 ([4]; chloroquine-resistant strain Dd2, 72 h, reference drugs in µM): 23.7 ± 0.24 µM

Structure (SMILES): CCN(CC)CCCC(C)Nc1ccnc2cc(Cl)ccc12 (stereo not shown) [Chloroquine, reference compound]
- IC50 ([3]; 3D7, 72 h): 0.85 ± 0.01 µM
- IC50 ([4]; DD2, 72 h): 21.7 ± 0.25 µM

Structure (SMILES): O=c1ccc2cc(O)c(O)cc2o1 [Esculetin (2), 6,7-dihydroxycoumarin]
- CC50 at 48 h [1]: > 500 µg/mL
- IC50 [2, 8]: > 50 µg/mL
- IC50 [3, 9]: 45.57 ± 0.08 µg/mL
- IC50 [4, 10]: 9.3 ± 0.29 µg/mL

Structure (SMILES): COc1cc([C@@H]2c3cc4c(cc3[C@H](O)[C@H]3COC(=O)[C@H]23)OCO4)cc(OC)c1OC [Podophyllotoxin, reference compound]
- CC50 at 48 h ([1]; Raw 264.7 macrophages, positive control, unit µM, read-out: Cytotoxicity Raw Cells CC50 ± SD): 0.71 ± 0.2 µM

Structure (SMILES): COc1cc2ccc(=O)oc2cc1O [Scopoletin (3), 7-hydroxy-6-methoxycoumarin]
- CC50 at 48 h [1]: > 500 µg/mL
- IC50 [2, 8]: 6.4 ± 0.8 µg/mL (≈ 33.3 µM)
- IC50 against Leishmania donovani strain MHOM/IN/1983/AG83 [5]: 163.3 µg/mL (≈ 850 µM)
- anticholinesterase activity IC50 (cholinesterase): 51 µg/mL
- IC50 [3, 9]: > 50 µg/mL
- IC50 [4, 10]: > 50 µg/mL
- antileishmanial activity IC50 (Leishmania): 6.804 µg/mL

Structure (SMILES): CC[C@H](/C=C/[C@@H](C)[C@H]1CC[C@H]2[C@@H]3CC=C4C[C@@H](O)CC[C@]4(C)[C@H]3CC[C@]12C)C(C)C [Stigmasterol (6), stigmasterol]
- CC50 at 48 h [1, 11]: > 500 µg/mL
- IC50 [2, 12]: 8.07 ± 0.9 µg/mL (≈ 19.6 µM)
- L. donovani Promastigote IC50 ± SD ([2]; promastigotes, resazurin assay): 9.14 ± 0.96 µg/mL
- IC50 ([3]; 3D7, 72 h): > 50 µg/mL
- IC50 ([4]; DD2, 72 h): > 50 µg/mL

Structure (SMILES): O=c1oc2c(O)c(O)cc3c(=O)oc4c(O)c(O)cc1c4c23 [ellagic acid]
- parasitemia in in vivo antileishmanial mouse model (Leishmania donovani [6]): significatively reduced parasitemia
- in vitro effect against Leishmania donovani (Leishmania donovani [7]): exhibited an in vitro effect

Structure (SMILES): CC[C@H](CC[C@@H](C)[C@H]1CC[C@H]2[C@@H]3CC=C4C[C@@H](O)CC[C@]4(C)[C@H]3CC[C@]12C)C(C)C [β-sitosterol (5), β-sitosterol]
- IC50 against leishmania promastigotes (leishmania promastigotes): 9.2 ± 0.06 µg/mL (≈ 22.2 µM)
- CC50 at 48 h [1, 11]: > 500 µg/mL
- IC50 [2, 12]: 5.56 ± 0.74 µg/mL (≈ 13.4 µM)
- IC50 ([3]; 3D7, 72 h): 45.3 ± 1.66 µg/mL
- IC50 ([4]; DD2, 72 h): > 50 µg/mL
